Laboratory results: ChEMBL document CHEMBL5620382, “Fluoroindole chalcone analogues targeting the colchicine binding site of tubulin for colorectal oncotherapy” (Eur J Med Chem, 2023)
pKd: −log10 of the molar value. Calls of active or inactive are those of the source. The rule behind the calls is not given here.

Columns and labels:
HCT-116 [1] = assay: Induction of endoplasmic reticulum (ER) stress in human HCT-116 cells assessed as increase in ROS level at 1.25 nM measured after 24 hrs by fluorescent analysis (reference value: 12%); type: functional
CT26 [2] = assay: Induction of endoplasmic reticulum (ER) stress in mouse CT26 cells assessed as increase in ROS level at 10 to 40 nM measured after 24 hrs by DCFH-DA analysis; type: functional, cell-based; conditions: dose 10-40 nM
PC-12 = assay: Antiproliferative activity against rat PC12 cells assessed as inhibition of proliferation at 2.5 to 20 nM measured after 24 hrs by CCK-8 assay; type: toxicity, cell-based; conditions: pc-12, 24 h, 0.02 µM, dose 2.5-20 nM
Tubulin = assay: Binding affinity to wild type tubulin (unknown origin) by MST analysis; type: protein-complex assay, Homo sapiens
CT26 [3] = assay: Induction of endoplasmic reticulum (ER) stress in mouse CT26 cells assessed as increase p-PERK expression at 10 to 40 nM measured after 24 hrs by Western blot analysis; type: functional, cell-based; conditions: dose 10-40 nM
CT26 [4] = assay: Induction of endoplasmic reticulum (ER) stress in mouse CT26 cells assessed as increase in ROS level at 40 nM measured after 24 hrs by fluorescent analysis (reference value: 14%); type: functional
HCT-116 [5] = assay: Induction of endoplasmic reticulum (ER) stress in human HCT-116 cells assessed as upregulation of cleaved-caspase 3 at 10 to 20 nM measured after 24 hrs by Western blot analysis; type: functional, cell-based; conditions: dose 10-20 nM
HCT-116 [6] = assay: Anti-tumor activity against human HCT116 cells xenografted in BALB/c mouse assessed as inhibition of tumor growth at 1.5 to 3 mg/kg, ip thrice a week for three weeks; type: functional, organism-based; conditions: dose 1.5-3 mg/kg, time 3.0 weeks
CT26 [7] = assay: Induction of endoplasmic reticulum (ER) stress in mouse CT26 cells assessed as increase in ROS level at 2.5 nM measured after 24 hrs by fluorescent analysis (reference value: 14%); type: functional
HCT-116 [8] = assay: Antiproliferative activity against human HCT-116 cells assessed as dead cells at 2.5 to 20 nM measured after 24 hrs by Calcein-AM/PI staining based immunofluorescence analysis; type: functional, cell-based; conditions: dose 2.5-20 nM
[9] = Toxicity in BALB/c mouse xenografted with human HCT116 cells assessed as change in body weight at 1.5 to 3 mg/kg, ip thrice a week for three weeks; type: organism-based, HCT-116; conditions: in vivo, 504 h, dose 1.5-3 mg/kg, time 3 weeks
HCT-116 [10] = assay: Cytotoxicity against human HCT-116 cells assessed as growth inhibition measured after 48 hrs by CCK-8 assay; type: functional
CT26 [11] = assay: Induction of endoplasmic reticulum (ER) stress in mouse CT26 cells assessed as upregulation of cleaved-caspase 3 at 10 to 40 nM measured after 24 hrs by Western blot analysis; type: functional, cell-based; conditions: dose 10-40 nM
CT26 [12] = assay: Antiproliferative activity against mouse CT26 cells assessed as dead cells at 2.5 to 40 nM measured after 24 hrs by Calcein-AM/PI staining based immunofluorescence analysis; type: functional, cell-based; conditions: dose 2.5-40 nM
HCT-116 [13] = assay: Anti-tumor activity against human HCT-116 cells xenografted in BALB/c mouse assessed as inhibition of cell proliferation in tumor section at 3 mg/kg, ip thrice a week for three weeks by Ki-67 staining based assay; type: functional, organism-based; conditions: time 3.0 weeks
HCT-116 [14] = assay: Induction of mitochondrial damage in human HCT-116 cells at 10 to 20 nM measured after 24 hrs by transmission electron microscope (TEM) analysis; type: functional, cell-based; conditions: dose 10-20 nM
CT26 [15] = assay: Induction of endoplasmic reticulum (ER) stress in mouse CT26 cells assessed as increase p-IRE1alpha expression at 10 to 40 nM measured after 24 hrs by Western blot analysis; type: functional, cell-based; conditions: dose 10-40 nM
HCT-116 [16] = assay: Induction of endoplasmic reticulum (ER) stress in human HCT-116 cells assessed as increase in ROS level at 2.5 nM measured after 24 hrs by fluorescent analysis (reference value: 12%); type: functional
HCT-116 [17] = assay: Cytotoxicity against human HCT-116 cells assessed as growth inhibition at 1.25 to 20 uM measured after 24 hrs in presence of ROS scavenger NAC by CCK-8 assay; type: functional, cell-based; conditions: dose 1.25-20 µM
HCT-116 [18] = assay: Induction of endoplasmic reticulum (ER) stress in human HCT-116 cells assessed as increase in ROS level at 5 nM measured after 24 hrs by fluorescent analysis (reference value: 12%); type: functional
HCT-116 [19] = assay: Induction of cell cycle arrest in human HCT-116 cells […] assessed as accumulation of cells at G2/M phase at 2.5 to 10 nM by flow cytometry analysis; type: functional, cell-based; conditions: dose 2.5-10 nM
[20] = Toxicity in C57B/6-APCmin/+ mouse model assessed as organ toxicity at 3 mg/kg, ip treated for 45 days by H and E staining; type: organism-based; conditions: in vivo, 1080 h, time 45 day
Mus musculus = assay: Antitumor activity against C57BL/6-APCmin/+ mouse model assessed as reduction in number of tumors in intestine at 3 mg/kg, ip treated for 45 days relative to control; type: functional, organism-based; conditions: time 45.0 day
HCT-116 [21] = assay: Induction of apoptosis in human HCT116 cells assessed as dead cells at 2.5 to 20 nM measured after 24 hrs by PI/Annexin V-FITC staining based flow cytometry; type: functional, cell-based; conditions: dose 2.5-20 nM
HCT-116 [22] = assay: Anti-tumor activity against human HCT-116 cells xenografted in BALB/c mouse assessed as apoptosis in tumor section at 3 mg/kg, ip thrice a week for three weeks by TUNEL staining based assay; type: functional, organism-based; conditions: time 3.0 weeks
CT26 [23] = assay: Induction of endoplasmic reticulum (ER) stress in mouse CT26 cells assessed as increase in ROS level at 10 nM measured after 24 hrs by fluorescent analysis (reference value: 14%); type: functional
CT26 [24] = assay: Induction of endoplasmic reticulum (ER) stress in mouse CT26 cells assessed as organelle vacuoles at 10 to 20 nM measured after 24 hrs by transmission electron microscope (TEM) analysis; type: functional, cell-based; conditions: dose 10-20 nM
CT26 [25] = assay: Induction of endoplasmic reticulum (ER) stress in mouse CT26 cells assessed as increase in ROS level at 5 nM measured after 24 hrs by fluorescent analysis (reference value: 14%); type: functional

For `COc1cc(C(=O)/C(C)=C/c2c[nH]c3cc(F)ccc23)cc(OC)c1OC`, the Activity (HCT-116 [1]) was 20.1%, the Activity (CT26 [2]) was “Active” and the Activity (PC-12) was “Non-Toxic”. The pKd (Tubulin) was 6.87, the Activity (CT26 [3]) was “Active” and the Activity (CT26 [4]) was 59.1%. For the same compound, the Activity (HCT-116 [5]) was “Active”, the Activity (HCT-116 [6]) was “Active” and the Activity (CT26 [7]) was 14.5%. The Activity (HCT-116 [8]) was “Active”, the Activity [9] was “Non-Toxic” and the GI50 (HCT-116 [10]) was 79 nM. For the same compound, the Activity (CT26 [11]) was “Active”, the Activity (CT26 [12]) was “Active” and the Activity (HCT-116 [13]) was “Active”. The Activity (HCT-116 [14]) was “Active”, the Activity (CT26 [15]) was “Active” and the Activity (HCT-116 [16]) was 35.6%. For the same compound, the Activity (HCT-116 [17]) was “inactive”, the Activity (HCT-116 [18]) was 48.5% and the Activity (HCT-116 [19]) was “Active”. For the same compound, the Activity [20] was “Non-Toxic”, the Activity (Mus musculus) was “Active” and the Activity (HCT-116 [21]) was “Active”. The Activity (HCT-116 [22]) was “Active”, the Activity (CT26 [23]) was 24.4% and the Activity (CT26 [24]) was “Active”. The Activity (CT26 [25]) was 15%.
